# According to patent US20020026053A1, “Novel 3-(substituted) -2- indolinones compounds and use thereof as inhibitors of protein kinase activity” (priority 1997, published 2002):
# Target: T1, Met receptor (EGFR/Met chimeric cells, EMR) (Homo sapiens, UniProt P08581)
# T1 construct: expressed in transfected cells; the other entry of the earlier key: EGFR (P00533, Epidermal growth factor receptor)
# Experiment: Met Autophosphorylation Assay
# Assay type: biochemical
# Settings: protocol P.130
# Summary of the method: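 Met phosphorylation was measured by capture ELISA. Lysates (90 μg/100 μl, HNTG plus 1 mM PMSF) from transiently transfected EGFR/Met chimera (EMR) cells were bound for 60 min at room temperature to wells holding rabbit anti-Met (C-28) on goat anti-rabbit coat. Phosphotyrosine was the read-out.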
# T1 sequence (P08581 with tags, fused parts or gaps): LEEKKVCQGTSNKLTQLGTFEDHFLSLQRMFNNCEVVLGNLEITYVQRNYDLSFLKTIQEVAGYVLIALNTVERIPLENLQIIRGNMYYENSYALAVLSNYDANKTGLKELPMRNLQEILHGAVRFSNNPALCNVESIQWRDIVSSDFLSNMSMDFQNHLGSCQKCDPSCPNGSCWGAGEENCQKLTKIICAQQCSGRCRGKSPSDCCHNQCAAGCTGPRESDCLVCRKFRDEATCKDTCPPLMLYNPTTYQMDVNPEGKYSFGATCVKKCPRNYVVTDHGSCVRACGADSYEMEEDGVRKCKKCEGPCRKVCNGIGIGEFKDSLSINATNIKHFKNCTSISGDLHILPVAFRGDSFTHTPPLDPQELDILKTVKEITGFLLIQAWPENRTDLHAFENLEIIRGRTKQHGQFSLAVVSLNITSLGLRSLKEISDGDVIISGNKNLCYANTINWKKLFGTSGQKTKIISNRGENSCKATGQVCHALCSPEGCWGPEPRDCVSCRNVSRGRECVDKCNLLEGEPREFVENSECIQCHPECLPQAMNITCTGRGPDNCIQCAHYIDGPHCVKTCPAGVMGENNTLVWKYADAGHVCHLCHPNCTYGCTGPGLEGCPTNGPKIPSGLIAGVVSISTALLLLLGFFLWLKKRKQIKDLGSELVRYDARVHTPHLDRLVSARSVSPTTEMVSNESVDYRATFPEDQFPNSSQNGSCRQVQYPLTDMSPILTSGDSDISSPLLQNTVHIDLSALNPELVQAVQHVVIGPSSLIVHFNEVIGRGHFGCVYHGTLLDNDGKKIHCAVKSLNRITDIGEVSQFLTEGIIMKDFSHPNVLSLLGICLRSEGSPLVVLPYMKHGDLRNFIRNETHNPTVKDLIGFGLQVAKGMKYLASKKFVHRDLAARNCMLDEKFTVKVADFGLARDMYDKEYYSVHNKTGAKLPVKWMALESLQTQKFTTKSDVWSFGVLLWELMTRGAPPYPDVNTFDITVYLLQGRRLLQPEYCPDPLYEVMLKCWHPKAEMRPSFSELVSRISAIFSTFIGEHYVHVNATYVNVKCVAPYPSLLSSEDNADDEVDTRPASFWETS
row,SMILES,Met Kinase % Inhibition (P.130) [%]
1,O=C1Nc2ccc(S(=O)(=O)N3CCOCC3)cc2C1=Cc1cc(F)ccc1F [10737/F04],62.8
2,O=C1Nc2ccc(S(=O)(=O)N3CCOCC3)cc2C1=Cc1cccc(F)c1F [10737/F05],67.1
3,COc1ccc(C=C2C(=O)Nc3ccc(S(=O)(=O)N4CCOCC4)cc32)cc1F [10737/F06],62.8
4,Cc1ccc(C)c(C=C2C(=O)Nc3ccc(S(=O)(=O)N4CCOCC4)cc32)c1 [10737/F07],33.3
5,O=C1Nc2ccc(S(=O)(=O)N3CCOCC3)cc2C1=Cc1ccc2ccccc2c1 [10737/F08],76.1
6,O=C1Nc2ccc(S(=O)(=O)N3CCOCC3)cc2C1=Cc1ccc(Oc2ccccc2)cc1 [10737/F09],76.5
7,CC(C)(C)c1ccc(Oc2cccc(C=C3C(=O)Nc4ccc(S(=O)(=O)N5CCOCC5)cc43)c2)cc1 [10737/F10],78.6
8,O=C1Nc2ccc(S(=O)(=O)N3CCOCC3)cc2C1=Cc1cccc(Oc2cccc(C(F)(F)F)c2)c1 [10737/F11],75.6
9,CCOc1ccc(C=C2C(=O)Nc3ccc(CCCl)cc32)cc1 [10737/G02],32.2
10,Cc1ccc(C=C2C(=O)Nc3ccc(CCCl)cc32)c(C)c1 [10737/G03],37.4
11,O=C1Nc2ccc(CCCl)cc2C1=Cc1cc(F)ccc1F [10737/G04],49.1
12,O=C1Nc2ccc(CCCl)cc2C1=Cc1cccc(F)c1F [10737/G05],53.2
13,COc1ccc(C=C2C(=O)Nc3ccc(CCCl)cc32)cc1F [10737/G06],50.7
14,Cc1ccc(C)c(C=C2C(=O)Nc3ccc(CCCl)cc32)c1 [10737/G07],41.8
15,O=C1Nc2ccc(CCCl)cc2C1=Cc1ccc2ccccc2c1 [10737/G08],31.2
16,O=C1Nc2ccc(CCCl)cc2C1=Cc1ccc(Oc2ccccc2)cc1 [10737/G09],37.9
17,CC(C)(C)c1ccc(Oc2cccc(C=C3C(=O)Nc4ccc(CCCl)cc43)c2)cc1 [10737/G10],22.8
18,O=C1Nc2ccc(CCCl)cc2C1=Cc1cccc(Oc2cccc(C(F)(F)F)c2)c1 [10737/G11],35.1
19,CCOc1ccc(C=C2C(=O)Nc3c(Br)cc(Br)c(C)c32)cc1 [10737/H02],42.9
20,Cc1ccc(C=C2C(=O)Nc3c(Br)cc(Br)c(C)c32)c(C)c1 [10737/H03],46.1
21,Cc1c(Br)cc(Br)c2c1C(=Cc1cc(F)ccc1F)C(=O)N2 [10737/H04],63.0
22,Cc1c(Br)cc(Br)c2c1C(=Cc1cccc(F)c1F)C(=O)N2 [10737/H05],76.5
23,COc1ccc(C=C2C(=O)Nc3c(Br)cc(Br)c(C)c32)cc1F [10737/H06],28.7
